Results from patent US8329717B2, “Pyrimidine derivatives and their use for controlling undesired plant growth” (Bayer Cropscience AG, priority 2008, dated 2012).

Legend:
[1] = logp (HCOOH), chemicophysical data; conditions: for chromatographic logP: HCOOH (formic acid)
PHBPU = experiment: Post-emergence herbicidal effect; format: in vivo; conditions: Dosage 320 g/ha, one-leaf stage, visual scoring after ca. 3 weeks vs untreated controls, 100% = plants have died
Procedure, shortened: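 Effect is rated visually as percent versus untreated plants (0% = like controls, 100% = plants died) about 3 weeks post-treatment. Plants at the one-leaf stage, 2 to 3 weeks from sowing in sandy loam, received spray of wettable powder or emulsion concentrate in 600 to 800 l/ha water plus 0.2% wetting agent, dosed in g/ha.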

Avena fatua [2] = experiment: Post-emergence herbicidal effect; format: in vivo; conditions: Dosage 320 g/ha, one-leaf stage, visual scoring after ca. 3 weeks vs untreated controls, 100% = plants have died
Procedure, shortened: (§1)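 Percent effect rated visually about three weeks after spraying, where 0% equals untreated control growth and 100% equals plant death. Spraying was done at the one-leaf stage on greenhouse plants in sandy loam, using WP or EC formulations dosed in g/ha.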

Amaranthus retroflexus [3] = experiment: Post-emergence herbicidal effect; format: in vivo; conditions: Dosage 320 g/ha, one-leaf stage, visual scoring after ca. 3 weeks vs untreated controls, 100% = plants have died
Procedure, shortened: as §1

Polygonum convolvulus [4] = experiment: Post-emergence herbicidal effect; format: in vivo; conditions: Dosage 320 g/ha, one-leaf stage, visual scoring after ca. 3 weeks vs untreated controls, 100% = plants have died
Procedure, shortened: as §1

Abutilon theophrasti [5] = experiment: Post-emergence herbicidal effect; format: in vivo; conditions: Dosage 320 g/ha, one-leaf stage, visual scoring after ca. 3 weeks vs untreated controls, 100% = plants have died
Procedure, shortened: as §1

Alopecurus myosuroides [6] = experiment: Post-emergence herbicidal effect; format: in vivo; conditions: Dosage 320 g/ha, one-leaf stage, visual scoring after ca. 3 weeks vs untreated controls, 100% = plants have died
Procedure, shortened: as §1

Stellaria media [7] = experiment: Post-emergence herbicidal effect; format: in vivo; conditions: Dosage 320 g/ha, one-leaf stage, visual scoring after ca. 3 weeks vs untreated controls, 100% = plants have died
Procedure, shortened: as §1

Lolium multiflorum [8] = experiment: Post-emergence herbicidal effect; format: in vivo; conditions: Dosage 320 g/ha, one-leaf stage, visual scoring after ca. 3 weeks vs untreated controls, 100% = plants have died
Procedure, shortened: as §1

Matricaria inodora [9] = experiment: Post-emergence herbicidal effect; format: in vivo; conditions: Dosage 320 g/ha, one-leaf stage, visual scoring after ca. 3 weeks vs untreated controls, 100% = plants have died
Procedure, shortened: as §1

Viola tricolor [10] = experiment: Post-emergence herbicidal effect; format: in vivo; conditions: Dosage 320 g/ha, one-leaf stage, visual scoring after ca. 3 weeks vs untreated controls, 100% = plants have died
Procedure, shortened: as §1

Echinochloa crus-galli [11] = experiment: Post-emergence herbicidal effect; format: in vivo; conditions: Dosage 320 g/ha, one-leaf stage, visual scoring after ca. 3 weeks vs untreated controls, 100% = plants have died
Procedure, shortened: as §1

Setaria viridis [12] = experiment: Post-emergence herbicidal effect; format: in vivo; conditions: Dosage 320 g/ha, one-leaf stage, visual scoring after ca. 3 weeks vs untreated controls, 100% = plants have died
Procedure, shortened: as §1

Avena fatua [13] = experiment: Pre-emergence herbicidal effect; format: in vivo; conditions: Dosage 320 g/ha, visual scoring after 3 weeks vs untreated controls, 100% = plants have died
Procedure, shortened: (§2)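 Seeds sown in sandy loam and covered with soil; compound (WP or EC formulation) sprayed onto soil surface as aqueous suspension/emulsion at 600 to 800 l/ha water with 0.2% wetting agent, dose in g/ha. Greenhouse; visual damage scored after 3 weeks versus untreated controls (0% = control, 100% = dead).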

Amaranthus retroflexus [14] = experiment: Pre-emergence herbicidal effect; format: in vivo; conditions: Dosage 320 g/ha, visual scoring after 3 weeks vs untreated controls, 100% = plants have died
Procedure, shortened: as §2

Polygonum convolvulus [15] = experiment: Pre-emergence herbicidal effect; format: in vivo; conditions: Dosage 320 g/ha, visual scoring after 3 weeks vs untreated controls, 100% = plants have died
Procedure, shortened: as §2

Abutilon theophrasti [16] = experiment: Pre-emergence herbicidal effect; format: in vivo; conditions: Dosage 320 g/ha, visual scoring after 3 weeks vs untreated controls, 100% = plants have died
Procedure, shortened: as §2

Alopecurus myosuroides [17] = experiment: Pre-emergence herbicidal effect; format: in vivo; conditions: Dosage 320 g/ha, visual scoring after 3 weeks vs untreated controls, 100% = plants have died
Procedure, shortened: as §2

Stellaria media [18] = experiment: Pre-emergence herbicidal effect; format: in vivo; conditions: Dosage 320 g/ha, visual scoring after 3 weeks vs untreated controls, 100% = plants have died
Procedure, shortened: as §2

Lolium multiflorum [19] = experiment: Pre-emergence herbicidal effect; format: in vivo; conditions: Dosage 320 g/ha, visual scoring after 3 weeks vs untreated controls, 100% = plants have died
Procedure, shortened: as §2

Matricaria inodora [20] = experiment: Pre-emergence herbicidal effect; format: in vivo; conditions: Dosage 320 g/ha, visual scoring after 3 weeks vs untreated controls, 100% = plants have died
Procedure, shortened: as §2

Cyperus esculentus = experiment: Pre-emergence herbicidal effect; format: in vivo; conditions: Dosage 320 g/ha, visual scoring after 3 weeks vs untreated controls, 100% = plants have died
Procedure, shortened: as §2

Viola tricolor [21] = experiment: Pre-emergence herbicidal effect; format: in vivo; conditions: Dosage 320 g/ha, visual scoring after 3 weeks vs untreated controls, 100% = plants have died
Procedure, shortened: as §2

Echinochloa crus-galli [22] = experiment: Pre-emergence herbicidal effect; format: in vivo; conditions: Dosage 320 g/ha, visual scoring after 3 weeks vs untreated controls, 100% = plants have died
Procedure, shortened: as §2

Setaria viridis [23] = experiment: Pre-emergence herbicidal effect; format: in vivo; conditions: Dosage 320 g/ha, visual scoring after 3 weeks vs untreated controls, 100% = plants have died
Procedure, shortened: as §2

Veronica persica [24] = experiment: Pre-emergence herbicidal effect; format: in vivo; conditions: Dosage 320 g/ha, visual scoring after 3 weeks vs untreated controls, 100% = plants have died
Procedure, shortened: as §2

Veronica persica [25] = experiment: Post-emergence herbicidal effect; format: in vivo; conditions: Dosage 320 g/ha, one-leaf stage, visual scoring after ca. 3 weeks vs untreated controls, 100% = plants have died
Procedure, shortened: as §1

| Structure (SMILES) | Post-emergence herbicidal effect AVEFA (Avena fatua [2]) [%] | Post-emergence herbicidal effect AMARE (Amaranthus retroflexus [3]) [%] | Post-emergence herbicidal effect POLCO (Polygonum convolvulus [4]) [%] | Post-emergence herbicidal effect ABUTH (Abutilon theophrasti [5]) [%] | Post-emergence herbicidal effect ALOMY (Alopecurus myosuroides [6]) [%] | Post-emergence herbicidal effect STEME (Stellaria media [7]) [%] | Post-emergence herbicidal effect LOLMU (Lolium multiflorum [8]) [%] | Post-emergence herbicidal effect VIOTR (Viola tricolor [10]) [%] | Post-emergence herbicidal effect ECHCG (Echinochloa crus-galli [11]) [%] | Post-emergence herbicidal effect SETVI (Setaria viridis [12]) [%] | Pre-emergence herbicidal effect AVEFA (Avena fatua [13]) [%] | Pre-emergence herbicidal effect AMARE (Amaranthus retroflexus [14]) [%] | Pre-emergence herbicidal effect ABUTH (Abutilon theophrasti [16]) [%] | Pre-emergence herbicidal effect ALOMY (Alopecurus myosuroides [17]) [%] | Pre-emergence herbicidal effect STEME (Stellaria media [18]) [%] | Pre-emergence herbicidal effect LOLMU (Lolium multiflorum [19]) [%] | Pre-emergence herbicidal effect MATIN (Matricaria inodora [20]) [%] | Pre-emergence herbicidal effect CYPES (Cyperus esculentus) [%] | Pre-emergence herbicidal effect ECHCG (Echinochloa crus-galli [22]) [%] | Pre-emergence herbicidal effect SETVI (Setaria viridis [23]) [%] | other results |
| --- | --- | --- | --- | --- | --- | --- | --- | --- | --- | --- | --- | --- | --- | --- | --- | --- | --- | --- | --- | --- | --- |
| Cc1ccc2c(c1)[C@H](Nc1ncc(Cl)c(N)n1)[C@@H](C)C2 [Example 1.105] | 90 | 90 | 80 | 90 | 80 | 90 | 90 | 80 | 100 | 90 | 80 | 100 | 100 | 100 | 100 | 100 | 100 | 100 | 100 | 100 | logp (HCOOH) [1]: wax-like; logp (HCOOH): 1.27; 1H-NMR (CDCl3, 400 MHZ, δ in ppm): 1.30 (d, 3H, CH3);; Post-emergence herbicidal effect PHBPU (PHBPU): 90%; Post-emergence herbicidal effect MATIN (Matricaria inodora [9]): 90%; Pre-emergence herbicidal effect POLCO (Polygonum convolvulus [15]): 100%; Pre-emergence herbicidal effect VIOTR (Viola tricolor [21]): 100%; Pre-emergence herbicidal effect VERPE (Veronica persica [24]): 100% |
| CC[C@H]1Cc2ccccc2[C@@H]1Nc1ncc(C#N)c(N)n1 [Example 1.129] | 80 | 90 | 90 | 90 | 90 | 90 | 90 | 80 | 100 | 90 | 90 | 100 | 80 | 100 | 100 | 100 | 100 | 80 | 100 | 100 | Post-emergence herbicidal effect VERPE (Veronica persica [25]): 90%; Pre-emergence herbicidal effect POLCO (Polygonum convolvulus [15]): 100%; Pre-emergence herbicidal effect VIOTR (Viola tricolor [21]): 100%; Pre-emergence herbicidal effect VERPE (Veronica persica [24]): 100% |
| Cc1ccc2c(c1)[C@H](Nc1ncc(C#N)c(N)n1)[C@@H](C)C2 [Example 1.35] | 95 | 93 | 90 | 95 | 100 | 95 | 90 | 90 | 100 | 95 | 100 | 100 | 100 | 100 | 100 | 100 | 100 | 100 | 100 | 100 | logp (HCOOH) [1]: wax-like; logp (HCOOH): 2.35; 1H-NMR (CDCl3, 400 MHZ, δ in ppm): 1.25 (d, 3H, CH3);; Post-emergence herbicidal effect PHBPU (PHBPU): 90%; Post-emergence herbicidal effect MATIN (Matricaria inodora [9]): 85%; Post-emergence herbicidal effect VERPE (Veronica persica [25]): 95%; Pre-emergence herbicidal effect POLCO (Polygonum convolvulus [15]): 100%; Pre-emergence herbicidal effect VIOTR (Viola tricolor [21]): 100%; Pre-emergence herbicidal effect VERPE (Veronica persica [24]): 100% |
| Nc1nc(N[C@@H]2CCCc3ccccc32)ncc1C(F)(F)F [Example 1.108, N2-[(1R)-1,2,3,4-Tetrahydronaphthalen-1-yl]-5-(trifluoromethyl)pyrimidine-2,4-diamine] |  |  |  |  |  |  |  |  |  |  |  |  |  |  |  |  |  |  |  |  | melting point: 130.8 °C; chromatographic logP [1]: 1.64 |
| Cc1ccc2c(c1)[C@H](Nc1nc(N)c(C#N)c(-c3ccccc3F)n1)[C@@H](C)C2 [Example 1.104, 4-Amino-2-{[(1R,2S)-2,6-dimethyl-2,3-dihydro-1H-inden-1-yl]amino}-6-(2-fluorophenyl)pyrimidine-5-carbonitrile] |  |  |  |  |  |  |  |  |  |  |  |  |  |  |  |  |  |  |  |  | melting point: 67 to 68 °C; chromatographic logP [1]: 3.65 |
| Cc1ccc2c(c1)[C@H](Nc1nc(C)c(C#N)c(N)n1)[C@@H](C)C2 [Example 1.17] | 80 | 97 | 80 | 87 | 90 | 97 | 93 | 90 | 93 | 90 | 90 | 100 | 100 | 100 | 100 | 100 | 100 | 90 | 100 | 100 | logp (HCOOH) [1]: solid, m.p.: 166.4° C.; logp (HCOOH): 2.40; 1H-NMR (CDCl3, 400 MHZ, δ in ppm): 1.25; Post-emergence herbicidal effect PHBPU (PHBPU): 90%; Post-emergence herbicidal effect MATIN (Matricaria inodora [9]): 85%; Post-emergence herbicidal effect VERPE (Veronica persica [25]): 87%; Pre-emergence herbicidal effect VERPE (Veronica persica [24]): 100% |
| C#Cc1cnc(N[C@H]2c3cc(C)ccc3C[C@@H]2C)nc1N [Example 1.119, N2-[(1R,2S)-2,6-Dimethyl-2,3-dihydro-1H-inden-1-yl]-5-ethynylpyrimidine-2,4-diamine] |  |  |  |  |  |  |  |  |  |  |  |  |  |  |  |  |  |  |  |  | melting point: 99 °C; chromatographic logP [1]: 1.43 |
